The assay concerns the target GST-Bcl-2 (Homo sapiens (Human), UniProt P10415). Put plainly: Time Resolved-Fluorescence Resonance Energy Transfer (TR-FRET) Bcl-2 binding assay. In short, it runs like this:
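Ki values derived from TR-FRET displacement of F-Bak peptide from GST-Bcl-2, detected with Tb-labelled anti-GST antibody (ex 340, em 520/495 nm). Compound dilution series started at 50 μM (2× starting concentration); room-temperature incubation 3 hours.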
In general terms: In TR-FRET formats the signal depends on donor and acceptor labels being close together.

The mark [1] stands for this setting: GST-Bcl-2 1 nM, F-Bak peptide probe 100 nM, Tb-anti-GST antibody 1 nM, Ki by Wang's equation.

Where two headings read alike, the source gives them in different places.

Chain of GST-Bcl-2 (P10415 whole entry): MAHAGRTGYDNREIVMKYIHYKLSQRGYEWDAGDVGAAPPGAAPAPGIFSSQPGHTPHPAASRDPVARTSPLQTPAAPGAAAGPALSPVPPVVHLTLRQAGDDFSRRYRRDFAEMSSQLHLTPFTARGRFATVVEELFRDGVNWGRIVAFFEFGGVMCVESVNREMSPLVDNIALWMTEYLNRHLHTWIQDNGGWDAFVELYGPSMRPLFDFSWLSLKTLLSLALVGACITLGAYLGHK

The term Ki denotes the equilibrium dissociation constant of an inhibitor or competing ligand from its target. For the molecule `CCN1CCOCC1COc1ccc(S(=O)(=O)NC(=O)c2ccc(N3CCN(CC4=C(c5ccc(Cl)cc5)CC(C)(C)CC4)CC3)cc2Oc2cc3cc[nH]c3cc2F)cc1[N+](=O)[O-]` (stereo not drawn) [Example 328, 4-(4-{[2-(4-chlorophenyl)-4,4-dimethylcyclohex-1-en-1-yl]methyl}piperazin-1-yl)-N-({4-[(4-ethylmorpholin-3-yl)methoxy]-3-nitrophenyl}sulfonyl)-2-[(6-fluoro-1H-indol-5-yl)oxy]benzamide], under setting [1], the Ki worked out at 0.068 nM.
The molecule `CN1CCC(Nc2ccc(S(=O)(=O)NC(=O)c3ccc(N4CCN(CC5=C(c6ccc(Cl)cc6)CC(C)(C)CC5)CC4)cc3Oc3cc4cc[nH]c4cc3C(F)(F)F)cc2[N+](=O)[O-])CC1` [Example 217, 4-(4-{[2-(4-chlorophenyl)-4,4-dimethylcyclohex-1-en-1-yl]methyl)piperazin-1-yl)-N-((4-[(1-methylpiperidin-4-yl)amino]-3-nitrophenyl}sulfonyl)-2-{[6-(trifluoromethyl)-1H-indol-5-yl]oxy}benzamide] showed a Ki of 0.174 nM.
Under setting [1], `CN(C)CCCNc1ccc(S(=O)(=O)NC(=O)c2ccc(N3CCN(Cc4ccccc4-c4ccc(Cl)cc4)CC3)cc2Oc2cccc(OCc3ccccc3)c2)cc1[N+](=O)[O-]` [Example 92, 2-(3-(benzyloxy)phenoxy)-4-(4-((4′-chloro-1,1′-biphenyl-2-yl)methyl)piperazin-1-yl)-N-((4-((3-(dimethylamino)propyl)amino)-3-nitrophenyl)sulfonyl)benzamide] had a Ki of 2.57 nM.
Still for that read-out and setting: with `O=C(NS(=O)(=O)c1ccc(NCCCN2CCOCC2)c([N+](=O)[O-])c1)c1ccc(N2CCN(Cc3ccccc3-c3ccc(Cl)cc3)CC2)cc1Oc1ccc(OCc2ccccc2)cc1` [Example 96, 2-(4-(benzyloxy)phenoxy)-4-(4-((4′-chloro-1,1′-biphenyl-2-yl)methyl)piperazin-1-yl)-N-((4-((3-morpholin-4-ylpropyl)amino)-3-nitrophenyl)sulfonyl)benzamide] the figure was greater than 1200 nM; with `CC1(C)CCC(CN2CCN(c3ccc(C(=O)NS(=O)(=O)c4ccc(NCC5COCCO5)c([N+](=O)[O-])c4)c(Oc4cc5cc[nH]c5cc4F)c3)CC2)=C(c2ccc(Cl)cc2)C1` (stereo not drawn) [Example 292, 4-(4-{[2-(4-chlorophenyl)-4,4-dimethylcyclohex-1-en-1-yl]methyl}piperazin-1-yl)-N-({4-[(1,4-dioxan-2-ylmethyl)amino]-3-nitrophenyl}sulfonyl)-2-[(6-fluoro-1H-indol-5-yl)oxy]benzamide], 0.191 nM; with `CC1(C)CCC(CN2CCN(c3ccc(C(=O)NS(=O)(=O)c4ccc(NCC5(F)CCOCC5)c([N+](=O)[O-])c4)c(Oc4cc5cc[nH]c5cc4F)c3)CC2)=C(c2ccc(Cl)cc2)C1` [Example 337, 4-(4-{[2-(4-chlorophenyl)-4,4-dimethylcyclohex-1-en-1-yl]methyl}piperazin-1-yl)-2-[(6-fluoro-1H-indol-5-yl)oxy]-N-[(4-{[(4-fluorotetrahydro-2H-pyran-4-yl)methyl]amino}-3-nitrophenyl)sulfonyl]benzamide], 0.049 nM.
On to `CC1(C)CCC(CN2CCN(c3ccc(C(=O)NS(=O)(=O)c4ccc(NC5CCN(C6CCOCC6)CC5)c([N+](=O)[O-])c4)c(Oc4cccc5c4CC(=O)N5)c3)CC2)=C(c2ccc(Cl)cc2)C1` [Example 289, 4-(4-{[2-(4-chlorophenyl)-4,4-dimethylcyclohex-1-en-1-yl]methyl}piperazin-1-yl)-N-({3-nitro-4-[(1-tetrahydro-2H-pyran-4-ylpiperidin-4-yl)amino]phenyl}sulfonyl)-2-[(2-oxo-2,3-dihydro-1H-indol-4-yl)oxy]benzamide], for which the inhibition constant Ki under setting [1] is less than 0.01 nM.
The same measure, in the same setting: for `CC(C)N1CCC(Nc2ccc(S(=O)(=O)NC(=O)c3ccc(N4CCN(CC5=C(c6ccc(Cl)cc6)CC(C)(C)CC5)CC4)cc3Oc3cccc(Cl)c3)cc2[N+](=O)[O-])CC1` [Example 175, 2-(3-chlorophenoxy)-4-(4-{[2-(4-chlorophenyl)-4,4-dimethylcyclohex-1-en-1-yl]methyl}piperazin-1-yl)-N-({4-[(1-isopropylpiperidin-4-yl)amino]-3-nitrophenyl}sulfonyl)benzamide] the value was 0.046 nM; for `CN(C)Cc1cccc(Oc2cc(N3CCN(Cc4ccccc4-c4ccc(Cl)cc4)CC3)ccc2C(=O)NS(=O)(=O)c2ccc(NCC3CCOCC3)c([N+](=O)[O-])c2)c1` [Example 1, 4-(4-((4′-chloro-1,1′-biphenyl-2-yl)methyl)piperazin-1-yl)-2-(3-((dimethylamino)methyl)phenoxy)-N-((3-nitro-4-((tetrahydro-2H-pyran-4-ylmethyl)amino)phenyl)sulfonyl)benzamide], 8.35 nM; for `CC1(C)CCC(CN2CCN(c3ccc(C(=O)NS(=O)(=O)c4cnc(OCC5(F)CCOCC5)c(Cl)c4)c(Oc4cc5cc[nH]c5cc4F)c3)CC2)=C(c2ccc(Cl)cc2)C1` [Example 326, N-({5-chloro-6-[(4-fluorotetrahydro-2H-pyran-4-yl)methoxy]pyridin-3-yl}sulfonyl)-4-(4-{[2-(4-chlorophenyl)-4,4-dimethylcyclohex-1-en-1-yl]methyl}piperazin-1-yl)-2-[(6-fluoro-1H-indol-5-yl)oxy]benzamide], 0.037 nM.
Take `O=C(NS(=O)(=O)c1ccc(NCCCN2CCOCC2)c([N+](=O)[O-])c1)c1ccc(N2CCN(Cc3ccccc3-c3ccc(Cl)cc3)CC2)cc1Oc1ccc(Cl)cc1` [Example 13, 4-(4-((4′-chloro-1,1′-biphenyl-2-yl)methyl)piperazin-1-yl)-2-(4-chlorophenoxy)-N-((4-((3-morpholin-4-ylpropyl)amino)-3-nitrophenyl)sulfonyl)benzamide]: the Ki under setting [1] is 1.62 nM.
Still for that read-out and setting: for `Cn1cnc2cc(Oc3cc(N4CCN(Cc5ccccc5-c5ccc(Cl)cc5)CC4)ccc3C(=O)NS(=O)(=O)c3ccc(NCCCN4CCOCC4)c([N+](=O)[O-])c3)ccc21` [Example 102, 4-(4-((4′-chloro-1,1′-biphenyl-2-yl)methyl)piperazin-1-yl)-2-((1-methyl-1H-benzimidazol-5-yl)oxy)-N-((4-((3-morpholin-4-ylpropyl)amino)-3-nitrophenyl)sulfonyl)benzamide] the value was 43.5 nM; for `O=C(NS(=O)(=O)c1ccc(NCC2CCOCC2)c([N+](=O)[O-])c1)c1ccc(N2CCN(Cc3ccccc3-c3ccc(Cl)cc3)CC2)cc1Oc1ccc(OCc2ccccc2)cc1` [Example 88, 2-(4-(benzyloxy)phenoxy)-4-(4-((4′-chloro-1,1′-biphenyl-2-yl)methyl)piperazin-1-yl)-N-((3-nitro-4-((tetrahydro-2H-pyran-4-ylmethyl)amino)phenyl)sulfonyl)benzamide], greater than 1200 nM; for `O=C(NS(=O)(=O)c1ccc(NCCCN2CCOCC2)c([N+](=O)[O-])c1)c1ccc(N2CCN(Cc3ccccc3-c3ccc(Cl)cc3)CC2)cc1Oc1cccc(Cl)c1` [Example 12, 4-(4-((4′-chloro-1,1′-biphenyl-2-yl)methyl)piperazin-1-yl)-2-(3-chlorophenoxy)-N-((4-((3-morpholin-4-ylpropyl)amino)-3-nitrophenyl)sulfonyl)benzamide], 0.331 nM.
On the same count and under the same terms, with `CN(C)Cc1ccc(Oc2cc(N3CCN(Cc4ccccc4-c4ccc(Cl)cc4)CC3)ccc2C(=O)NS(=O)(=O)c2ccc(NCC3CCOCC3)c([N+](=O)[O-])c2)cc1` [Example 75, 4-(4-((4′-chloro-1,1′-biphenyl-2-yl)methyl)piperazin-1-yl)-2-(4-((dimethylamino)methyl)phenoxy)-N-((3-nitro-4-((tetrahydro-2H-pyran-4-ylmethyl)amino)phenyl)sulfonyl)benzamide] the figure was 76.8 nM.

The values above are taken from patent publication US8952157B2, “Apoptosis-inducing agents for the treatment of cancer and immune and autoimmune diseases” (AbbVie Inc., priority 2008, dated 2015).
